Results from patent US12454678B2, “Muscle differentiation-promoting actions of ergothioneine, ascorbic acid 2-glucoside, ascorbic acid, and combination thereof” (NAGASE & CO., LTD., priority 2018, dated 2025).

What was measured:
Assay type in all cases: cell-based
[1] = system: MyH2 mRNA expression in C2C12 cells; assay: MyH2 mRNA expression level of C2C12 cells (real time PCR, corrected by PPIA); conditions: for MyH2 mRNA expression: procedure of Example 3, vs NT
Experimental: (§1) C2C12 cells were suspended in a growth medium to adjust the cell density to 65×10^4 cells/ml. Then, 1.5 ml of the cell suspension was added to each well of a 6-well plate, and the cells were cultured in a 5% CO2 incubator for 24 hours. The growth medium was removed, and 2 ml of a differentiation medium containing 0.5 mM EGT was added. A control group (NT) was subjected to the exactly same operation except that EGT was not contained. The culture medium was removed after 2 days, 1 ml of TRIzol (Invitrogen Corporation) was added to each well, and RNA was collected according to the protocol of TRIzol. The collected RNA was converted into complementary strand DNA with a reverse transcription kit (Takara Bio Inc.). The following primer DNAs (MyH2 [NM_001039545]: forward 5′[…]3′ (SEQ ID NO: 5), reverse 5′[…]3′ (SEQ ID NO: 6), ACTA1 [NM_001272041]: forward 5′[…]3′ (SEQ ID NO: 7), PPIA [NM_008907]: forward 5′[…]3′ (SEQ ID NO: 3), and reverse 5′[…]3′ (SEQ ID NO: 4)) were added to the obtained complementary strand DNA, and the gene expression levels of MyH2, ACTA1, and PPIA were measured by subjecting the mixture to a CFX96 Touch™ real time PCR analysis system (Bio-Rad Laboratories, Inc.) using TB Green™ Premix Ex Tag™ II (Takara Bio Inc.) according to the protocol thereof. Correction was performed by dividing the amounts of expressed MyH2 and ACTA1 mRNA by the amount of expressed PPIA mRNA to calculate the myosin heavy chain 2 (MyH2) and a actin (ACTA1) mRNA expression levels. […] The MyH2 mRNA and ACTA1 mRNA expression levels increased by adding EGT.
C2C12 cells were suspended in a growth medium to adjust the cell density to 65×10^4 cells/ml. Then, 1.5 ml of the cell suspension was added to each well of a 6-well plate, and the cells were cultured in a 5% CO2 incubator for 24 hours. The growth medium was removed, and 2 ml of a differentiation medium containing 0.5 mM EGT, 25 μM edaravone (hereinafter, abbreviated to Edv), or 50 μM Edv was added to each well. Edv is a powerful synthetic antioxidant. The culture medium was exchanged for a new culture medium every other day, and the culture was continued. A control group (NT) was subjected to the exactly same operation except that EGT was not contained. The culture medium was removed after 4 days, 1 ml of TRIzol (Invitrogen Corporation) was added to each well, and RNA was collected according to the protocol of TRIzol. The complementary strand DNA of the mRNA was obtained by treating the collected RNA with a reverse transcription kit (Takara Bio Inc.). The following primer DNAs (MyH2 [NM_001039545]: forward 5′[…]3′ (SEQ ID NO: 5), reverse 5′[…]3′ (SEQ ID NO: 6), PPIA [NM_008907]: forward 5′[…]3′ (SEQ ID NO: 3), and reverse 5′[…]3′ (SEQ ID NO: 4)) were added to the obtained complementary strand DNA, and the gene expression levels of MyH2 and PPIA were measured by subjecting the mixture to a CFX96 Touch™ real time PCR analysis system (Bio-Rad Laboratories, Inc.) using TB Green™ Premix Ex Tag™ II Kit (Takara Bio Inc.) according to the protocol thereof. Correction was performed by dividing the amount of expressed MyH2 mRNA by the amount of expressed PPIA mRNA to calculate the MyH2 mRNA expression level.
(§2) The amounts of MyH2 and ACTA1 mRNA expression of C2C12 cells when the differentiation medium containing only EGT was used, when the differentiation medium containing EGT and AG was used, and when the differentiation medium containing only AG was used were investigated. AA2G(R) produced by Hayashibara Co., Ltd. was used as AG. […]

[2] = system: ACTA1 mRNA expression in C2C12 cells; assay: ACTA1 mRNA expression level of C2C12 cells (real time PCR, corrected by PPIA); conditions: for ACTA1 mRNA expression: procedure of Example 3, vs NT
Experimental: as §1
as §2, with “AG. The concentration of EGT in the differentiation medium was 0.5 mM, and the concentration of AG was 1.0 mM. The experiment procedure was the same as that of Example 3.” for “AG.”

C2C12 cells = assay: Microscopic observation of muscle differentiation of C2C12 cells in differentiation medium; conditions: 0.5 mM EGT in differentiation medium, sixth day, vs control without EGT
Experimental: C2C12 cells were suspended in a 10% fetal calf serum-containing Dulbecco's modified Eagle's medium (hereinafter, called a growth medium) to adjust the cell density to 65×10^4 cells/ml. Then, 1.5 ml of the cell suspension was added to each well of a 6-well plate, and the cells were cultured in a 5% CO2 incubator for 24 hours. The growth medium was removed, and 2 ml of 2% horse serum-containing Dulbecco's modified Eagle's medium containing 0.5 mM EGT (hereinafter, called a differentiation medium) was then added to each well. The differentiation medium was exchanged for a new culture medium every other day, and the culture was continued. A control group was subjected to the exactly same operation except that EGT was not contained. The forms of the cells were observed and photographed through a microscope (NIKON CORPORATION: Eclipse Ts2) on the sixth day after exchange for the differentiation medium.

[3] = system: MyoD mRNA expression in C2C12 cells; assay: MyoD mRNA expression level of C2C12 cells (real time PCR, corrected by PPIA); conditions: 0.1 mM or 0.5 mM EGT, after 2 days
Experimental: C2C12 cells were suspended in a growth medium to adjust the cell density to 65×10^4 cells/ml. Then, 1.5 ml of the cell suspension was added to each well of a 6-well plate, and the cells were cultured in a 5% CO2 incubator for 24 hours. The growth medium was removed, and 2 ml of a differentiation medium containing 0.1 mM or 0.5 mM EGT was then added to each well. A control group (hereinafter abbreviated to NT) was subjected to the exactly same operation except that EGT was not contained. The culture medium was removed after 2 days, 1 ml of TRIzol (Invitrogen Corporation) was added to each well, and the cells were dissolved. The cell solution was collected in an Eppendorf tube, and RNA was collected according to the protocol of TRIzol. The complementary strand DNA of the mRNA was obtained by treating the collected RNA with a reverse transcription kit (Takara Bio Inc.). The following primer DNAs (MyoD [NM_010866]: forward 5[…]3′ (SEQ ID NO: 1), reverse 5′[…]3′ (SEQ ID NO: 2), PPIA [NM_008907]: forward 5′[…]3′ (SEQ ID NO: 3), and reverse 5′[…]3′ (SEQ ID NO: 4)) were added to the obtained complementary strand DNA, and the gene expression levels of MyoD and PPIA were measured by subjecting the mixture to a CFX96 Touch™ real time PCR analysis system (Bio-Rad Laboratories, Inc.) using TB Green™ Premix Ex Taq™ II (Takara Bio Inc.) according to the protocol thereof. […]

## O=C1O[C@H]([C@@H](O)CO)C(O)=C1O[C@H]1O[C@H](CO)[C@@H](O)[C@H](O)[C@H]1O [AG, ascorbic acid 2-glucoside]
[1]; only AG, 1.0 mM
  MyH2 mRNA expression: increased
[2]; only AG, 1.0 mM
  ACTA1 mRNA expression: increased

## C[N+](C)(C)[C@@H](Cc1c[nH]c(=S)[nH]1)C(=O)[O-] [EGT, Ergothioneine]
C2C12 cells
  differentiation from C2C12 cells to muscle cells / myotube cell formation: more myotube cells were formed
[3]
  MyoD mRNA expression level (relative to NT = 1): increased depending on the concentration of EGT
[1]; 0.5 mM EGT, after 2 days
  MyH2 mRNA expression level (relative to NT = 1): increased
[2]; 0.5 mM EGT, after 2 days
  ACTA1 mRNA expression level (relative to NT = 1): increased

## CC1=NN(c2ccccc2)C(=O)C1 [Edv, edaravone, reference compound]
[1]; 25 μM or 50 μM Edv, after 4 days
  MyH2 mRNA expression level (relative to NT = 1): did not affect
[1]; 25 μM or 50 μM Edv, after 4 days, listed as edaravone
  MyH2 mRNA expression level (relative to NT = 1): does not influence

## O=C1O[C@H]([C@@H](O)CO)C(O)=C1O [VC, ascorbic acid]
[1]; only VC, 0.5 mM
  MyH2 mRNA expression: increased
[2]; only VC, 0.5 mM
  ACTA1 mRNA expression: increased
